Common to all, as to test: single cell motility assay
Assay type in all cases: cell-based, Human

In assay [1] the test system is PMWK (ITKLO) melanoma cell line. An excerpt:
(§1) FIG. 4A-4E. Effects of ITK knockdown on proliferation and motility of melanoma cells. FIG. 4A) Western of lysates of VMM 39 containing each of the four shRNA constructs using rabbit monoclonal anti ITK (Y401). FIG. 4B) The four shRNA lentiviral constructs were used to transduce three melanoma cell lines, PMWK (ITKLO), VMM 39 (ITKHI), and RPMI 8322 (ITKHI). 50,000 cells were placed into each well of a 6 well plate, which was then counted 3, 5, and 6, or 7 days after plating to assess the proliferation rates of the different cell lines. FIG. 4C) Single Cell Motility assays were performed on three different melanoma cell lines, PMWK, VMM 39, and RPMI 8322. Each melanoma cell line was transduced with the four shRNA lentiviral constructs producing a total of 12 cell lines. 10,000 cells were plated on fibronectin coated glass bottom dishes. Pictures were taken once every 40 minutes for 16 hours. FIG. 4D) Cell cycle analysis of PMWK, VMM 39, and RPMI 8322 cells that have been transduced with various shRNAs. Cells were harvested after 3 hours of incubation with 5-ethynyl-2′-deoxyuridine (EdU). EdU incorporation and DNA content with FxCycle Violet were analyzed using flow cytometry. Illustrated in this panel are the percentages of cells in G0/G1 (low DNA and EdU content), S (high EdU and low-to-medium DNA content), and G2/M (Low EdU and high DNA content). FIG. 4E) Single-cell motility analysis of PMWK, VMM 39, and RPMI 8322 that have been transduced with various shRNAs. At least 50 cells were tracked for each cell line and the average motility rate was determined. Shown with asterisks are the shRNA-transduced melanoma cell lines with significant impairment in motility (P<0.001 one-way ANOVA following Bonferroni adjustments for multiple comparisons).
(§2) FIG. 5A-5C. Effects of BI 10N inhibitor on proliferation and motility of melanoma cells. FIG. 5A) Cell motility assays were performed as described in FIG. 4A-4E; however, the inhibitor BI 10N was added to the media to decrease ITK kinase activity in parental cell lines instead of using the shRNA ITK knockdown cell lines. BI 10N was added to the media 24 hours prior to the start of the motility assay and the VivaView camera system was used to image cellular motility of the melanoma cells as described previously. […] Cells were trypsinized and counted using the Invitrogen Countess. […] The cells were counted with the Invitrogen Countess at 3, 5, and 6 or 7 days after plating to assess the proliferation rates of the different cell lines in the presence of BI 10N. […] Following 3 days of BI 10N treatment, the cells were incubated with EdU for 3 hours and were subsequently assessed for 5-ethynyl-2′-deoxyuridine (EdU) incorporation rate and DNA content with FxCycle Violet. […]

The subject of assay [2] is RPMI 8322 (ITKHI) melanoma cell line. As to conditions: 10-25 nM.
Excerpt: as §1, §2

The subject of assay [3] is VMM 39 (ITKHI) melanoma cell line. Particulars: VMM39; 10-25 nM.
Excerpt: as §1, §2

With `CC(C)C(C)CNCc1ccc2c(c1)[nH]/c(=N\C(=O)c1ccc(C3=CN=NC3)s1)n2CC(C)(C)O` (stereo not shown) [BI 10N], the “concentration required for smaller changes in migration” value in assay [1] is recorded as not below 150 nM. Also, the effect on migration result in assay [1] (10-25 nM) is “do not decrease”. Moreover, the decrease in migration result in assay [2] and in assay [3] was “about 50%” in each case.
